Experimental data reported in US8791131B2, “Imidazo[1,5]naphthyridine compounds, their pharmaceutical use and compositions” (Pfizer Inc., priority 2008, dated 2014).
Like-named read-outs stand apart in the source and are kept apart here.

Key:
mTOR = mTOR (Homo sapiens (Human), UniProt P42345)
PI3-Kα = PI3-Kα (Mus musculus (Mouse), UniProt P42337); assay: PI3-Kα biochemical assay (in vitro kinase assay, fluorescence polarization); details: Ki calculated from IC50, [ATP]=30 uM, Km=25 uM;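 further: Insect-cell-expressed mouse p110/p85 complex converting PI(4,5)P2, product PI(3,4,5)P3 detected by displacing TAMRA-tagged PI(3,4,5)P3 from Grip1 PH domain, lower polarization means more product, room temperature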
PI3-Kα, sequence (P42337 whole entry, the tested form may be a part): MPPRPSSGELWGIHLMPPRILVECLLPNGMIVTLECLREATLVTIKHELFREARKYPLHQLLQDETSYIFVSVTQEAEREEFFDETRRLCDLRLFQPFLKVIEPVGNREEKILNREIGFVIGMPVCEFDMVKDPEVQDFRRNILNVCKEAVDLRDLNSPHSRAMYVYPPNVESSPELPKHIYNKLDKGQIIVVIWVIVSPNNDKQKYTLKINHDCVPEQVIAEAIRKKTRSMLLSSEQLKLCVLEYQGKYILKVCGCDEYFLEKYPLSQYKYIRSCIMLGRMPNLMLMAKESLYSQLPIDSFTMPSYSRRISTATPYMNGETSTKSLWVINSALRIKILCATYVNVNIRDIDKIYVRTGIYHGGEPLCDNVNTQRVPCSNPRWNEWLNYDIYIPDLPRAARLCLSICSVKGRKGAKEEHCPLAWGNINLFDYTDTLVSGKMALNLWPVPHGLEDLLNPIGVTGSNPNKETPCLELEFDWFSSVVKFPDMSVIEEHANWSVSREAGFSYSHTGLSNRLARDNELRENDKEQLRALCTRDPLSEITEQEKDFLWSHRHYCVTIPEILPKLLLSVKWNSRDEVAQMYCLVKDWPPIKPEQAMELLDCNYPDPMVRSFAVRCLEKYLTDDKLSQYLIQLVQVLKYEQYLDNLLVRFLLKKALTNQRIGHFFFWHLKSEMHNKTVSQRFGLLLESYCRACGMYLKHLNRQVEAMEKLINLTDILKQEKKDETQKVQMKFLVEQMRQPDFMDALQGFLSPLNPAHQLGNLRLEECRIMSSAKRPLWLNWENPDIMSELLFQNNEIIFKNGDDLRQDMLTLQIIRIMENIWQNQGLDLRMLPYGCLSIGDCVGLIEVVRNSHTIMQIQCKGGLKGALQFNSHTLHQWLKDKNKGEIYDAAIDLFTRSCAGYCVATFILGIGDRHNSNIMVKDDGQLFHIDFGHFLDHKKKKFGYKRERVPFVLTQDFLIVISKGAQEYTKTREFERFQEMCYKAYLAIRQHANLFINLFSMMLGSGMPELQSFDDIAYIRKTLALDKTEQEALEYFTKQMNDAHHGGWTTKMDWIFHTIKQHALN
PI3-Kα, sequence (P26450 whole entry partner, the tested form may be a part): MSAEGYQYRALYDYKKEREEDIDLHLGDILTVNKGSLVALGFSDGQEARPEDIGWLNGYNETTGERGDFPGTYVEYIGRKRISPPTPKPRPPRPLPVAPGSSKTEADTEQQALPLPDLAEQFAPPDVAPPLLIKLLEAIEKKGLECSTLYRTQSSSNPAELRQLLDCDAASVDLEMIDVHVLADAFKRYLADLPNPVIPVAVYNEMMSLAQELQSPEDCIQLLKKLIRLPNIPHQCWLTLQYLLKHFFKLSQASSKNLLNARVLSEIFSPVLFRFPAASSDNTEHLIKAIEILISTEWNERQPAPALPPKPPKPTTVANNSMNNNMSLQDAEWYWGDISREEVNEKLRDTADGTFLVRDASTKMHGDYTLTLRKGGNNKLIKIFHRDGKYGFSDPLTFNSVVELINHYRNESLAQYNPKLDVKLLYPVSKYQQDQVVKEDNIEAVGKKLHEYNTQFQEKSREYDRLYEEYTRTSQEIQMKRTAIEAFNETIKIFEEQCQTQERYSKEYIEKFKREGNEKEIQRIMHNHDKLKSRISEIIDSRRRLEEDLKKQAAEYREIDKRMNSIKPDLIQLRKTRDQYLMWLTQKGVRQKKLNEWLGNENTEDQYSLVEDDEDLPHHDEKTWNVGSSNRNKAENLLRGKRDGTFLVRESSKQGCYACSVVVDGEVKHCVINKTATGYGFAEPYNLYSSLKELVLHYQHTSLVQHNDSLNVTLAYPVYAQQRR

[1] = system: PI3-K (phosphorylation of AKT at serine 473) in BT20 cells; assay: PI3-Kα cellular assay (phospho-AKT Ser473 ELISA in BT20 cells); details: Homo sapiens, BT-20, 1 h;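 further: lysates read by ELISA with TMB colour at 450 nm, cells given 0.5% DMSO vehicle serve as positive control and cell-free wells as negative control, duplicate wells per concentration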
[2] = read-out: S473 pAKT 0.5% FBS IC50 (μM)
[3] = read-out: S473 pAKT 10% FBS IC50 (μM)

mTOR, sequence (P42345 2156-2469): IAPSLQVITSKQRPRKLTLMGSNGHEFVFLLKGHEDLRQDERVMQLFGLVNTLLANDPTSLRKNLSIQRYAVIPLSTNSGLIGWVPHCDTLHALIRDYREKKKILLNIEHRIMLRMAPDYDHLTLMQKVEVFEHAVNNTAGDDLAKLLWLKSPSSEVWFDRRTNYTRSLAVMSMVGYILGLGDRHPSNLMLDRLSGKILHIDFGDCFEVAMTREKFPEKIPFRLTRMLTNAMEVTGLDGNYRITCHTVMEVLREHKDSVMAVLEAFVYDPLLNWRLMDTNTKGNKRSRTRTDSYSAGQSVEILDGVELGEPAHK

SMILES: COc1ccc(-c2ccc3ncc4[nH]c(=O)n(Cc5ccccc5)c4c3n2)cn1 [Compound 130, 1-benzyl-8-(6-methoxypyridin-3-yl)-1,3-dihydro-2H-imidazo[4,5-c][1,5]naphthyridin-2-one]
- Ki (mTOR): 0.00844 µM
- PI3Ka Ki (PI3-Kα): 0.00239 µM
- IC50 [1, 2]: 0.0245 µM

SMILES: COc1ccc(-c2ccc3ncc4c(c3n2)n(C2CCN(C(C)C)CC2)c(=O)n4C)cn1 [Compound 137, 1-(1-isopropylpiperidin-4-yl)-8-(6-methoxypyridin-3-yl)-3-methyl-1,3-dihydro-2H-imidazo[4,5-c][1,5]naphthyridin-2-one]
- Ki (mTOR): 0.0178 µM
- PI3Ka Ki (PI3-Kα): 0.00348 µM
- IC50 [1, 3]: 0.0551 µM

SMILES: O=c1[nH]c2cnc3ccc(-c4cnc5ccccc5c4)nc3c2n1C1CCNCC1 [Compound 117, 1-piperidin-4-yl-8-quinolin-3-yl-1,3-dihydro-2H-imidazo[4,5-c][1,5]naphthyridin-2-one]
- Ki (mTOR): 0.0124 µM
- PI3Ka Ki (PI3-Kα): 0.00243 µM
- IC50 [1, 3]: 0.353 µM

SMILES: CC(=O)N1CCC(n2c(=O)n(C)c3cnc4ccc(-c5ccc(N(C)C)nc5)nc4c32)CC1 [Compound 195, 1-(1-acetylpiperidin-4-yl)-8-[6-(dimethylamino)pyridin-3-yl]-3-methyl-1,3-dihydro-2H-imidazo[4,5-c][1,5]naphthyridin-2-one]
- Ki (mTOR): 0.00172 µM
- PI3Ka Ki (PI3-Kα): 0.000391 µM
- IC50 [1, 3]: 0.0172 µM

SMILES: CCC(=O)N1CCC(n2c(=O)n(C)c3cnc4ccc(-c5cnc6ccccc6c5)nc4c32)CC1 [Compound 121, 3-methyl-1-(1-propionylpiperidin-4-yl)-8-quinolin-3-yl-1,3-dihydro-2H-imidazo[4,5-c][1,5]naphthyridin-2-one]
- Ki (mTOR): 0.0079 µM
- PI3Ka Ki (PI3-Kα): 0.000539 µM
- IC50 [1, 2]: 0.00786 µM

SMILES: C[C@@H](O)C(=O)N1CCC(n2c(=O)n(C)c3cnc4ccc(-c5cnc6[nH]ncc6c5)nc4c32)CC1 [Compound 258, 1-{1-[(2R)-2-hydroxypropanoyl]piperidin-4-yl}-3-methyl-8-(1H-pyrazolo[3,4-b]pyridin-5-yl)-1,3-dihydro-2H-imidazo[4,5-c][1,5]naphthyridin-2-one]
- Ki (mTOR): 0.000241 µM
- PI3Ka Ki (PI3-Kα): 0.00011 µM
- IC50 [1, 3]: 0.0294 µM

SMILES: Cn1cc(-c2ccc3ncc4c(c3n2)n(C2CCOCC2)c(=O)n4C)cn1 [Compound 203, 3-methyl-8-(1-methyl-1H-pyrazol-4-yl)-1-(tetrahydro-2H-pyran-4-yl)-1,3-dihydro-2H-imidazo[4,5-c][1,5]naphthyridin-2-one]
- Ki (mTOR): 0.0723 µM
- PI3Ka Ki (PI3-Kα): 0.00517 µM
- IC50 [1, 3]: 0.0718 µM

SMILES: COc1ncc(-c2ccc3ncc4c(c3n2)n(C2CCN(CCO)CC2)c(=O)n4C)cn1 [Compound 185, 1-[1-(2-hydroxyethyl)piperidin-4-yl]-8-(2-methoxypyrimidin-5-yl)-3-methyl-1,3-dihydro-2H-imidazo[4,5-c][1,5]naphthyridin-2-one]
- Ki (mTOR): 0.0252 µM
- PI3Ka Ki (PI3-Kα): 0.0119 µM
- IC50 [1, 3]: 0.124 µM

SMILES: Cn1c(=O)n([C@H]2CC[C@H](O)CC2)c2c3nc(-c4cn[nH]c4)ccc3ncc21 [Compound 168, 1-(trans-4-hydroxycyclohexyl)-3-methyl-8-(1H-pyrazol-4-yl)-1,3-dihydro-2H-imidazo[4,5-c][1,5]naphthyridin-2-one]
- Ki (mTOR): 0.000204 µM
- PI3Ka Ki (PI3-Kα): 0.00417 µM
- IC50 [1, 3]: 0.0197 µM

SMILES: COc1cccc(-c2ccc3ncc4c(c3n2)n(C2CCN(C(C)=O)CC2)c(=O)n4C)c1 [Compound 277, 1-(1-acetylpiperidin-4-yl)-8-(3-methoxyphenyl)-3-methyl-1,3-dihydro-2H-imidazo[4,5-c][1,5]naphthyridin-2-one]
- Ki (mTOR): 0.0103 µM
- PI3Ka Ki (PI3-Kα): 0.00304 µM
- IC50 [1, 3]: 0.0577 µM

SMILES: CNC(=O)N1CCC(n2c(=O)n(C)c3cnc4ccc(-c5ccc(N(C)C)nc5)nc4c32)CC1 [Compound 196, 4-{8-[6-(dimethylamino)pyridin-3-yl]-3-methyl-2-oxo-2,3-dihydro-1H-imidazo[4,5-c][1,5]naphthyridin-1-yl}-N-methylpiperidine-1-carboxamide]
- Ki (mTOR): 0.00301 µM
- PI3Ka Ki (PI3-Kα): 0.00076 µM
- IC50 [1, 3]: 0.0243 µM

SMILES: CN(C)c1ccc(-c2ccc3ncc4[nH]c(=O)n(-c5ccc(C(C)(C)C#N)cc5)c4c3n2)cn1 [Compound 107, 2-(4-(8-(6-(dimethylamino)pyridin-3-yl)-2-oxo-2,3-dihydroimidazo[4,5-c][1,5]naphthyridin-1-yl)phenyl)-2-methylpropanenitrile]
- Ki (mTOR): 0.00426 µM
- PI3Ka Ki (PI3-Kα): 0.00385 µM
- IC50 [1, 2]: 0.0676 µM

SMILES: CCNC(=O)Nc1ccc(-c2ccc3ncc4c(c3n2)n(C2CCN(C(=O)OC(C)(C)C)CC2)c(=O)n4C)cc1 [Compound 265, tert-butyl 4-(8-{4-[(ethylcarbamoyl)amino]phenyl}-3-methyl-2-oxo-2,3-dihydro-1H-imidazo[4,5-c][1,5]naphthyridin-1-yl)piperidine-1-carboxylate]
- Ki (mTOR): 0.0144 µM
- PI3Ka Ki (PI3-Kα): 0.00502 µM
- IC50 [1, 3]: 0.0399 µM

SMILES: COc1ccc(-c2ccc3ncc4c(c3n2)n(CCN2CCNCC2)c(=O)n4C)cn1 [Compound 266, 8-(6-methoxypyridin-3-yl)-3-methyl-1-(2-piperazin-1-ylethyl)-1,3-dihydro-2H-imidazo[4,5-c][1,5]naphthyridin-2-one]
- Ki (mTOR): 0.273 µM
- PI3Ka Ki (PI3-Kα): 0.0078 µM
- IC50 [1, 3]: 0.344 µM

SMILES: Cn1cc(-c2ccc3ncc4c(c3n2)n(C2CCN(CC(N)=O)CC2)c(=O)n4C)cn1 [Compound 211, 2-{4-[3-methyl-8-(1-methyl-1H-pyrazol-4-yl)-2-oxo-2,3-dihydro-1H-imidazo[4,5-c][1,5]naphthyridin-1-yl]piperidin-1-yl}acetamide]
- Ki (mTOR): 0.00755 µM
- PI3Ka Ki (PI3-Kα): 0.00463 µM
- IC50 [1, 3]: 0.232 µM

SMILES: CN(C)c1ccc(-c2ccc3ncc4c(c3n2)n(C2CCN(C(=O)CO)CC2)c(=O)n4C)cn1 [Compound 216, 8-[6-(dimethylamino)pyridin-3-yl]-1-(1-glycoloylpiperidin-4-yl)-3-methyl-1,3-dihydro-2H-imidazo[4,5-c][1,5]naphthyridin-2-one]
- Ki (mTOR): 0.00229 µM
- PI3Ka Ki (PI3-Kα): 0.000505 µM
- IC50 [1, 3]: 0.00623 µM

SMILES: COc1ncc(-c2ccc3ncc4c(c3n2)n(C2CCN(C(C)=O)CC2)c(=O)n4C)cn1 [Compound 187, 1-(1-acetylpiperidin-4-yl)-8-(2-methoxypyrimidin-5-yl)-3-methyl-1,3-dihydro-2H-imidazo[4,5-c][1,5]naphthyridin-2-one]
- Ki (mTOR): 0.00374 µM
- PI3Ka Ki (PI3-Kα): 0.00387 µM
- IC50 [1, 3]: 0.0346 µM

SMILES: Cc1ccc(-c2ccc3ncc4c(c3n2)n(C2CCOCC2)c(=O)n4C)cn1 [Compound 200, 3-methyl-8-(6-methylpyridin-3-yl)-1-(tetrahydro-2H-pyran-4-yl)-1,3-dihydro-2H-imidazo[4,5-c][1,5]naphthyridin-2-one]
- Ki (mTOR): 0.00172 µM
- PI3Ka Ki (PI3-Kα): 0.00111 µM
- IC50 [1, 3]: 0.0273 µM

SMILES: COCCn1c(=O)n(C)c2cnc3ccc(-c4ccc(OC)nc4)nc3c21 [Compound 270, 1-(2-methoxyethyl)-8-(6-methoxypyridin-3-yl)-3-methyl-1,3-dihydro-2H-imidazo[4,5-c][1,5]naphthyridin-2-one]
- Ki (mTOR): 0.00713 µM
- PI3Ka Ki (PI3-Kα): 0.0135 µM
- IC50 [1, 3]: 0.207 µM

SMILES: Cn1c(=O)n(C2CCN(C(=O)CO)CC2)c2c3nc(-c4cccc5[nH]ncc45)ccc3ncc21 [Compound 256, 1-(1-glycoloylpiperidin-4-yl)-8-(1H-indazol-4-yl)-3-methyl-1,3-dihydro-2H-imidazo[4,5-c][1,5]naphthyridin-2-one]
- Ki (mTOR): 0.00197 µM
- PI3Ka Ki (PI3-Kα): 0.000575 µM
- IC50 [1, 3]: 0.0604 µM

SMILES: N[C@H]1CC[C@H](n2c(=O)[nH]c3cnc4ccc(-c5cnc6ccccc6c5)nc4c32)CC1 [Compound 192, 1-(trans-4-aminocyclohexyl)-8-quinolin-3-yl-1,3-dihydro-2H-imidazo[4,5-c][1,5]naphthyridin-2-one]
- Ki (mTOR): 0.00333 µM
- PI3Ka Ki (PI3-Kα): 0.00221 µM
- IC50 [1, 3]: 0.402 µM

SMILES: Cc1ccc(-c2ccc3ncc4c(c3n2)n([C@H](C)CO)c(=O)n4C)cn1 [Compound 231, 1-[(1R)-2-hydroxy-1-methylethyl]-3-methyl-8-(6-methylpyridin-3-yl)-1,3-dihydro-2H-imidazo[4,5-c][1,5]naphthyridin-2-one]
- Ki (mTOR): 0.0562 µM
- PI3Ka Ki (PI3-Kα): 0.0134 µM
- IC50 [1, 3]: 0.269 µM

SMILES: Cn1c(=O)n(C2CCN(CC(F)(F)F)CC2)c2c3nc(-c4cnc5ccccc5c4)ccc3ncc21 [Compound 141, 3-methyl-8-quinolin-3-yl-1-[1-(2,2,2-trifluoroethyl)piperidin-4-yl]-1,3-dihydro-2H-imidazo[4,5-c][1,5]naphthyridin-2-one]
- Ki (mTOR): 0.00956 µM
- PI3Ka Ki (PI3-Kα): 0.0205 µM
- IC50 [1, 3]: 0.0148 µM

SMILES: Cc1ccc(-c2ccc3ncc4c(c3n2)n(C2CCN(C(=O)CN(C)C)CC2)c(=O)n4C)cn1 [Compound 178, 1-[1-(N,N-dimethylglycyl)piperidin-4-yl]-3-methyl-8-(6-methylpyridin-3-yl)-1,3-dihydro-2H-imidazo[4,5-c][1,5]naphthyridin-2-one]
- Ki (mTOR): 0.00118 µM
- PI3Ka Ki (PI3-Kα): 0.00409 µM
- IC50 [1, 3]: 0.0427 µM

SMILES: COc1ccc(-c2ccc3ncc4c(c3n2)n([C@H](C)CO)c(=O)n4C)cn1 [Compound 233, 1-[(1R)-2-hydroxy-1-methylethyl]-8-(6-methoxypyridin-3-yl)-3-methyl-1,3-dihydro-2H-imidazo[4,5-c][1,5]naphthyridin-2-one]
- Ki (mTOR): 0.0238 µM
- PI3Ka Ki (PI3-Kα): 0.00894 µM
- IC50 [1, 3]: 0.237 µM

SMILES: CN(C)c1ccc(-c2ccc3ncc4c(c3n2)n(-c2ccc(C(C)(C)C#N)cc2)c(=O)n4C)cn1 [Compound 108, 2-(4-(8-(6-(dimethylamino)pyridin-3-yl)-3-methyl-2-oxo-2,3-dihydroimidazo[4,5-c][1,5]naphthyridin-1-yl)phenyl)-2-methylpropanenitrile]
- Ki (mTOR): 0.00467 µM
- PI3Ka Ki (PI3-Kα): 0.00445 µM
- IC50 [1, 2]: 0.0309 µM
